Experimental data reported in ChEMBL document CHEMBL1125017, “Potent anticonflict activity and lessening of memory impairment with a series of novel [1]benzothieno[2,3-c]pyridines and 1,2,3,4-tetrahydro[1]benzothieno[2,3-c]pyridines” (J Med Chem, 1990).

These compounds were tested on Mus musculus (assay: Lessening of memory impairment measured in mice; time of latency in seconds at an intravenous dose of 10 mg/kg.).
Type: functional

Compound	Activity
CCOC(=O)C1Cc2c(sc3ccccc23)CN1C(=O)c1ccccc1Cl (stereo unspecified)	28.1
CCOC(=O)C1Cc2c(sc3ccccc23)CN1C(=O)c1ccccc1 (stereo unspecified)	35.1
CCOC(=O)C1Cc2c(sc3ccccc23)CN1C(C)=O (stereo unspecified)	37.3
CC(=O)N1CCCN(C(=O)c2cc3c(cn2)sc2ccccc23)CC1.Cl	55
Cl.O=C(c1cc2c(cn1)sc1ccccc12)N1CCCNCC1	38.9
Cl.NCCCNC(=O)c1cc2c(cn1)sc1ccccc12	37.7
Cl.O=C(c1cc2c(cn1)sc1ccccc12)N1CCNCC1	40.7
Cl.NCCCC(=O)N1CCCN(C(=O)c2cc3c(cn2)sc2ccccc23)CC1	51.9
CN1CCN(C(=O)c2cc3c(cn2)sc2ccccc23)CC1.Cl	44.2
CN(C)CCNC(=O)c1cc2c(cn1)sc1ccccc12.Cl	64.5
Cl.O=C(c1cc2c(cn1)sc1ccccc12)N1CCCN(Cc2ccc(Cl)cc2)CC1	34.7
CN1CCCN(C(=O)c2cc3c(cn2)sc2ccccc23)CC1.Cl	40.3
CC1CN(C(=O)c2cc3c(cn2)sc2ccccc23)CCN1.Cl (stereo unspecified)	40.3
CCOC(=O)c1cc2c(cn1)sc1ccccc12	11.3

These compounds were tested on Rattus norvegicus (assay: Anticonflict activity measured in male wistar rats; number of shocks received in 5 min at an intravenous dose of 10 mg/kg.).
Type: functional

Compound	Activity
CCOC(=O)C1Cc2c(sc3ccccc23)CN1C(=O)c1ccccc1Cl (stereo unspecified)	2.5
CCOC(=O)C1Cc2c(sc3ccccc23)CN1C(=O)c1ccccc1 (stereo unspecified)	6.3
COC(=O)CCCNC(=O)c1cc2c(cn1)sc1ccccc12	9.9
CC1CCCC(C)N1C(=O)c1cc2c(cn1)sc1ccccc12 (stereo unspecified)	4.5
COC(=O)C1Cc2c(sc3ccccc23)CN1 (stereo unspecified)	17.9
CC(=O)N1CCCN(C(=O)c2cc3c(cn2)sc2ccccc23)CC1.Cl	22.2
Cl.O=C(c1cc2c(cn1)sc1ccccc12)N1CCCNCC1	21.8
Cl.NCCCNC(=O)c1cc2c(cn1)sc1ccccc12	15.2
Cl.O=C(c1cc2c(cn1)sc1ccccc12)N1CCNCC1	17.8
CN1CCN(C(=O)c2cc3c(cn2)sc2ccccc23)CC1.Cl	3.3
CN(C)CCNC(=O)c1cc2c(cn1)sc1ccccc12.Cl	9.6
Cl.O=C(c1cc2c(cn1)sc1ccccc12)N1CCCN(Cc2ccc(Cl)cc2)CC1	12.8
CN1CCCN(C(=O)c2cc3c(cn2)sc2ccccc23)CC1.Cl	3.5
CC1CN(C(=O)c2cc3c(cn2)sc2ccccc23)CCN1.Cl (stereo unspecified)	7.6
Cl.NCC(=O)N1CCCN(C(=O)c2cc3c(cn2)sc2ccccc23)CC1	14.1
CCOC(=O)c1cc2c(cn1)sc1ccccc12	10.7

Species on record: Mus musculus
Experiment: Lessening of memory impairment by the compound was measured in mice.
Type: functional

Compound	Activity
COC(=O)C1Cc2c(sc3ccccc23)CN1 (stereo unspecified)	64.5
